# Experimental data as given in PMC6024615, “Effect of Biliary Drainage on the Toxicity and Toxicokinetics of Amanita exitialis in Beagles” (Toxins, 2018).
# Like-named read-outs stand apart in the source and are kept apart here. Marks after values point to notes of the source that are not given here.
# How the values were obtained:
# [1] = Peptide toxins in the blood / toxicokinetics in beagles with biliary drainage; format: in vivo, beagle dogs; parameters: Dose normalized AUC (0–∞) / Dose normalized Cmax: unit not given here; details: for T1/2 / AUC (0–∞) / CL/F / Cmax / Dose normalized AUC (0–∞) / Dose normalized Cmax / MRT (0–∞) / Tmax / Vd/F: biliary drainage, plasma, mean ± SD; for T1/2: UPLC-ESI-MS/MS; for Vd/F: male, beagle, dog, read-out: Vz/F
# Method: (§1) The study was approved by National Institute of Occupational Health and Poison Control review board for animal experiments. Twenty-four male beagles (age, 8–10 months; weight, 10 ± 1 kg) were obtained from Beijing Institute of Xieerxin Biology Resource (Beijing, China). They were randomly divided into four groups of six animals each: control, biliary drainage, and 20 and 60 mg/kg with biliary drainage groups. The biliary drainage operation was conducted in all groups barring the control group. The dogs were dressed in homemade underwear, coats, and Elizabeth circles for a week to ensure pre-experimental acclimatization (Figure S8a–c). After determining the baseline values for biochemical indicators, the dogs were fasted for 24 h but received water ad libitum. They were anesthetized by intravenous administration of pentobarbital sodium (3%, 1 mL/kg) during the surgery. A temperature of 38–39 °C was maintained with a warming mat. After skin preservation and sterilization, the abdominal cavity was opened through the central abdomen. The abdomen was explored and blunt dissection of the common bile duct was performed (Figure S8d). The common bile duct and its branches were ligated from the intestinal side. A 7.0-Fr drainage catheter (COOK, Bloomington, IN, USA) was percutaneously inserted into the gallbladder, and a medical drainage bag was connected to the drainage catheter coming out of the abdominal cavity. Each opened layer, including the peritoneum, abdominal wall muscle, and skin, was closed with suture. The operative incision was protected with sterile gauze and a bandage, and the dogs were dressed in homemade underwear, coats, and Elizabeth circles. The drainage bag was placed in the pocket of the coat (Figure S8e). After the anesthetic wore off, the dogs were placed in cages, and food and water were provided ad libitum. The operative incision was sterilized with iodophor twice a day until stitches were removed six days after surgery. The drainage bag was replaced every day. On the eighth day after surgery, the 20 and 60 mg/kg with biliary drainage groups were orally administered a lyophilized powder of Amanita exitialis in starch capsules. In control and bile drainage group, the beagle dogs were fed with empty capsules. Immediately after dosing, the animals were placed in their cages, and food and water were provided ad libitum. Dogs were sacrificed with an overdose of sodium pentobarbital at the end of the experiment. All procedures were performed according to the ethical standards of the National Institutes of Health Guide for Animal Welfare and approved by the Institutional Animal Care and Use Committee (EAWE-2017-005).
# (§2) Peptide toxins in blood and urine samples were analyzed as described previously. Bile samples from Days 0–1, Days 1–2, Days 2–3, and Days 3–4 were collected and stored in medical drainage bags and the bile volume was recorded. Plasma and urine samples were stored at 2–8 °C until analysis for peptide toxins.
# (§3) UPLC and MS/MS parameters were as described in our previous study. The limit of detection and limit of quantitation of each toxin in the bile were 0.03 mg/kg and 0.5 mg/kg, respectively.
# Toxicokinetic parameters were described in our previous study. Measurement data are reported as mean ± standard deviation values and enumeration data are reported as percentage (%). […] SPSS 22.0 (IBM Corporation, Armonk, NY, USA, 2015) was used for statistical analysis. The criterion for statistical significance was p ≤ 0.05. Except for the biliary drainage operation, the animals and methods in our present study are in accordance with our previously published study. Thus, by directly comparing the data from this study with those from our published studies on Amanita exitialis-exposed beagles without biliary drainage, we can evaluate the impact of biliary drainage on the toxicity and toxicokinetics of Amanita exitialis in beagles.
# [2] = Peptide toxins in the urine of beagles with biliary drainage; format: in vivo, beagle dogs; details: for Total (accumulated) amount excreted in urine / percentage of total urine excretion, Total: 0–4 days
# Method: as §1, §2, §3
# [3] = 20 mg/kg Amanita exitialis oral
# [4] = 60 mg/kg Amanita exitialis oral
# [5] = 20 mg/kg with biliary drainage group
# [6] = 60 mg/kg with biliary drainage group
# [7] = 1–2 days, 20 mg/kg with biliary drainage group
# [8] = 1–2 days, 60 mg/kg with biliary drainage group
# [9] = 2–3 days, 20 mg/kg with biliary drainage group
# [10] = 2–3 days, 60 mg/kg with biliary drainage group
# [11] = 3-4d, 20 mg/kg with biliary drainage group
# [12] = 3-4d, 60 mg/kg with biliary drainage group
# [13] = 3–4 days, 20 mg/kg with biliary drainage group
# [14] = 3–4 days, 60 mg/kg with biliary drainage group
smiles,measurement,setting,value
CC[C@H](C)[C@@H]1NC(=O)CNC(=O)[C@@H]2Cc3c([nH]c4cc(O)ccc34)[S@+]([O-])C[C@H](NC(=O)CNC1=O)C(=O)N[C@@H](CC(=O)O)C(=O)N1C[C@H](O)C[C@H]1C(=O)N[C@@H]([C@@H](C)[C@@H](O)CO)C(=O)N2 [β-amanitin],detection rate of peptide toxins in blood,"[1]; 0 h after ingestion, 20 mg/kg with biliary drainage group",0%
same,detection rate of peptide toxins in blood,"[1]; 0 h after ingestion, 60 mg/kg with biliary drainage group",0%
same,T1/2,[1]; [3],1.29 ± 1.07 h
same,AUC (0–∞),[1]; [3],3.24 ± 1.49 µg·h/L
same,CL/F,[1]; [3],0.64 ± 0.42 L/h/kg
same,Cmax,[1]; [3],0.85 ± 0.33 µg/L
same,Dose normalized AUC (0–∞),[1]; [3],179 ± 82.4
same,Dose normalized Cmax,[1]; [3],57 ± 18.3
same,MRT (0–∞),[1]; [3],3.83 ± 1.02 h
same,Tmax,[1]; [3],1.63 ± 0.48 h
same,T1/2,[1]; [4],1.54 ± 0.71 h
same,AUC (0–∞),[1]; [4],"15.75 ± 4.27 ^a,b µg/L × h"
same,CL/F,[1]; [4],0.33 ± 0.09 L/h/kg
same,Cmax,[1]; [4],"5.18 ± 1.32 ^a,b µg/L"
same,Dose normalized AUC (0–∞),[1]; [4],222.3 ± 79.2
same,Dose normalized Cmax,[1]; [4],96 ± 24.4
same,MRT (0–∞),[1]; [4],3.89 ± 0.46 h
same,Tmax,[1]; [4],1.25 ± 0.29 h
same,detection rate of peptide toxins in blood,"[1]; 0.25 h after ingestion, 20 mg/kg with biliary drainage group",0%
same,detection rate of peptide toxins in blood,"[1]; 0.25 h after ingestion, 60 mg/kg with biliary drainage group",50%
same,detection rate of peptide toxins in blood,"[1]; 0.5 h after ingestion, 20 mg/kg with biliary drainage group",33%
same,detection rate of peptide toxins in blood,"[1]; 0.5 h after ingestion, 60 mg/kg with biliary drainage group",66%
same,detection rate of peptide toxins in blood,"[1]; 1 h after ingestion, 20 mg/kg with biliary drainage group",100%
same,detection rate of peptide toxins in blood,"[1]; 1 h after ingestion, 60 mg/kg with biliary drainage group",100%
same,detection rate of peptide toxins in blood,"[1]; 1.5 h after ingestion, 20 mg/kg with biliary drainage group",100%
same,detection rate of peptide toxins in blood,"[1]; 1.5 h after ingestion, 60 mg/kg with biliary drainage group",100%
same,detection rate of peptide toxins in blood,"[1]; 2 h after ingestion, 20 mg/kg with biliary drainage group",100%
same,detection rate of peptide toxins in blood,"[1]; 2 h after ingestion, 60 mg/kg with biliary drainage group",100%
same,detection rate of peptide toxins in blood,"[1]; 3 h after ingestion, 20 mg/kg with biliary drainage group",100%
same,detection rate of peptide toxins in blood,"[1]; 3 h after ingestion, 60 mg/kg with biliary drainage group",100%
same,detection rate of peptide toxins in blood,"[1]; 4 h after ingestion, 20 mg/kg with biliary drainage group",100%
same,detection rate of peptide toxins in blood,"[1]; 4 h after ingestion, 60 mg/kg with biliary drainage group",100%
same,detection rate of peptide toxins in blood,"[1]; 5 h after ingestion, 20 mg/kg with biliary drainage group",100%
same,detection rate of peptide toxins in blood,"[1]; 5 h after ingestion, 60 mg/kg with biliary drainage group",100%
same,detection rate of peptide toxins in blood,"[1]; 6 h after ingestion, 20 mg/kg with biliary drainage group",83%
same,detection rate of peptide toxins in blood,"[1]; 6 h after ingestion, 60 mg/kg with biliary drainage group",100%
same,detection rate of peptide toxins in blood,"[1]; 8 h after ingestion, 20 mg/kg with biliary drainage group",83%
same,detection rate of peptide toxins in blood,"[1]; 8 h after ingestion, 60 mg/kg with biliary drainage group",100%
same,detection rate of peptide toxins in blood,"[1]; 10 h after ingestion, 20 mg/kg with biliary drainage group",66%
same,detection rate of peptide toxins in blood,"[1]; 10 h after ingestion, 60 mg/kg with biliary drainage group",100%
same,detection rate of peptide toxins in blood,"[1]; 12 h after ingestion, 20 mg/kg with biliary drainage group",33%
same,detection rate of peptide toxins in blood,"[1]; 12 h after ingestion, 60 mg/kg with biliary drainage group",100%
same,detection rate of peptide toxins in blood,"[1]; 24 h after ingestion, 20 mg/kg with biliary drainage group",0%
same,detection rate of peptide toxins in blood,"[1]; 24 h after ingestion, 60 mg/kg with biliary drainage group",33%
same,detection rate of peptide toxins in blood,"[1]; 36 h after ingestion, 20 mg/kg with biliary drainage group",0%
same,detection rate of peptide toxins in blood,"[1]; 36 h after ingestion, 60 mg/kg with biliary drainage group",0%
same,detection rate of peptide toxins in blood,"[1]; 48 h after ingestion, 20 mg/kg with biliary drainage group",0%
same,detection rate of peptide toxins in blood,"[1]; 48 h after ingestion, 60 mg/kg with biliary drainage group",0%
same,time at which toxins were detected in plasma after ingestion,"[1]; beagles with biliary drainage, oral Amanita exitialis",30 min
same,Vd/F,[1]; [3],0.78 ± 0.63 L/kg
same,Vd/F,[1]; [4],1.38 ± 0.59 L/kg
same,detection rate of peptide toxins in urine,"[2]; 0-1 d, 20 mg/kg with biliary drainage group",100%
same,detection rate of peptide toxins in urine,"[2]; 0-1 d, 60 mg/kg with biliary drainage group",100%
same,daily amount excreted in urine,"[2]; 0–1 days, 20 mg/kg with biliary drainage group",0.0050 mg
same,percentage of total urine excretion excreted daily,"[2]; 0–1 days, 20 mg/kg with biliary drainage group, 20 mg/kg",more than 90%
same,percentage of total urine excretion excreted daily,"[2]; 0–1 days, 20 mg/kg with biliary drainage group, listed as β-Amanitin, 20 mg/kg",93.9%
same,daily amount excreted in urine,"[2]; 0–1 days, 60 mg/kg with biliary drainage group",0.0065 mg
same,percentage of total urine excretion excreted daily,"[2]; 0–1 days, 60 mg/kg with biliary drainage group, 60 mg/kg",more than 90%
same,percentage of total urine excretion excreted daily,"[2]; 0–1 days, 60 mg/kg with biliary drainage group, listed as β-Amanitin, 60 mg/kg",91.4%
same,Total (accumulated) amount excreted in urine,[2]; [5],0.0055 mg
same,"percentage of total urine excretion, Total",[2]; [5],100%
same,Total (accumulated) amount excreted in urine,[2]; [6],0.0068 mg
same,"percentage of total urine excretion, Total",[2]; [6],100%
same,time within which toxin was detected in urine,[2]; [5],two
same,time within which toxin was detected in urine,[2]; [6],two
same,detection rate of peptide toxins in urine,"[2]; 1-2 d, 20 mg/kg with biliary drainage group",50%
same,detection rate of peptide toxins in urine,"[2]; 1-2 d, 60 mg/kg with biliary drainage group",83%
same,daily amount excreted in urine,[2]; [7],0.0005 mg
same,percentage of total urine excretion excreted daily,[2]; [7],6.1%
same,daily amount excreted in urine,[2]; [8],0.0003 mg
same,percentage of total urine excretion excreted daily,[2]; [8],8.6%
same,detection rate of peptide toxins in urine,"[2]; 2-3 d, 20 mg/kg with biliary drainage group",0%
same,toxin content in urine,"[2]; 2-3d, 20 mg/kg with biliary drainage group, mean ± SD",0 µg/L
same,detection rate of peptide toxins in urine,"[2]; 2-3 d, 60 mg/kg with biliary drainage group",0%
same,toxin content in urine,"[2]; 2-3d, 60 mg/kg with biliary drainage group, mean ± SD",0 µg/L
same,daily amount excreted in urine,[2]; [9],0(0%) mg
same,percentage of total urine excretion excreted daily,[2]; [9],0(0%)
same,daily amount excreted in urine,[2]; [10],0(0%) mg
same,percentage of total urine excretion excreted daily,[2]; [10],0(0%)
same,detection rate of peptide toxins in urine,[2]; [11],0%
same,toxin content in urine,[2]; [11],0 µg/L
same,detection rate of peptide toxins in urine,[2]; [12],0%
same,toxin content in urine,[2]; [12],0 µg/L
same,daily amount excreted in urine,[2]; [13],0(0%) mg
same,percentage of total urine excretion excreted daily,[2]; [13],0(0%)
same,daily amount excreted in urine,[2]; [14],0(0%) mg
same,percentage of total urine excretion excreted daily,[2]; [14],0(0%)
same,share of total urine excretion in the 0–2-day urine,"[2]; beagles with biliary drainage, both dose groups",more than 95%
